Measured values taken from the kinase profiling compilation of Christmann-Franck et al. (2016).

How the values were obtained:
Experiment in all cases: radiometric filter-binding kinase assay, Kinase HotSpot
Conditions in all cases: compound 0.5 µM; ATP 10 µM
[1] = target: PRKACA (human) (UniProt P17612)
[2] = target: MAP3K2 (human) (UniProt Q9Y2U5)
[3] = target: PIM1 (human) (UniProt P11309)
[4] = target: SRC (human) (UniProt P12931)
[5] = target: YES1 (human) (UniProt P07947)
[6] = target: MAP2K2 (human) (UniProt P36507)
[7] = target: SGK3 (human) (UniProt Q96BR1)
[8] = target: RPS6KA6 KD1 KD2 (human) (UniProt Q9UK32)
[9] = target: PKN1 (human) (UniProt Q16512)
[10] = target: CLK3 (human) (UniProt P49761)
[11] = target: ACVR1B (human) (UniProt P36896)
[12] = target: PBK (human) (UniProt Q96KB5)
[13] = target: CSNK1G1 (human) (UniProt Q9HCP0)
[14] = target: CDK5 CDK5R1 p25 (human) (UniProt Q00535+Q15078)
Sequence of CDK5 CDK5R1 p25 (human) (Q00535 whole entry, looked up): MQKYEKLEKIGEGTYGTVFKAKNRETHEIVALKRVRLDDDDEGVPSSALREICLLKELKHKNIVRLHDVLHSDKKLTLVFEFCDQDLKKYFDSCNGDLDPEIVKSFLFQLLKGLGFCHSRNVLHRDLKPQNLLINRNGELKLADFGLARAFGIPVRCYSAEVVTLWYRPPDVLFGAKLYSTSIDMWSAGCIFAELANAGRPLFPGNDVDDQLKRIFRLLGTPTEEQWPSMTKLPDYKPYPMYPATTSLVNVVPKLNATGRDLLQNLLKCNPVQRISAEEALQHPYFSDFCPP
Sequence of CDK5 CDK5R1 p25 (human) (Q15078 whole entry, looked up): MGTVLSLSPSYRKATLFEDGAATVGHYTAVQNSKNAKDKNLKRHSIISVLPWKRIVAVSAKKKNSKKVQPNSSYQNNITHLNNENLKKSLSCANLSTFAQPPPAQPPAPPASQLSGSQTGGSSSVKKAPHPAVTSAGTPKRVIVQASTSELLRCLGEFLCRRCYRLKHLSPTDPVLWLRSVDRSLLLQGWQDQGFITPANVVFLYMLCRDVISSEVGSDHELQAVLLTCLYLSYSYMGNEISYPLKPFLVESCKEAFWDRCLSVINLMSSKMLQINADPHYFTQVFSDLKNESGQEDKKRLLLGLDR

[15] = target: MAP3K7 TAB1 (human) (UniProt O43318+Q15750)
[16] = target: MAP2K1 (human) (UniProt Q02750)
Sequence of MAP2K1 (human) (Q02750 whole entry, looked up): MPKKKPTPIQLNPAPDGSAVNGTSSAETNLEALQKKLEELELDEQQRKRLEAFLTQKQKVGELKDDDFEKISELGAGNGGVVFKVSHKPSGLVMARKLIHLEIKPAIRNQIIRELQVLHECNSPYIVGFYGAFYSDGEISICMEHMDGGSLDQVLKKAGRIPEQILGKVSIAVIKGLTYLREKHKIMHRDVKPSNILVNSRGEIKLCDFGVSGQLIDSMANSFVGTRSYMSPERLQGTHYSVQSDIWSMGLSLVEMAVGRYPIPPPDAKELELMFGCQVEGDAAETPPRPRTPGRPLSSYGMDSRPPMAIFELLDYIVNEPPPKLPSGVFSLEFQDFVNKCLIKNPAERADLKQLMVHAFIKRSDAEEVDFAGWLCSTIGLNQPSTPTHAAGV

[17] = target: TYK2 JH1 catalytic (human) (UniProt P29597)
[18] = target: TEC (human) (UniProt P42680)
[19] = target: EPHA3 (human) (UniProt P29320)
[20] = target: CAMK1 (human) (UniProt Q14012)
[21] = target: GSK3A (human) (UniProt P49840)
[22] = target: PLK1 (human) (UniProt P53350)
[23] = target: MAP3K14 (human) (UniProt Q99558)
[24] = target: MAP3K10 (human) (UniProt Q02779)
Sequence of MAP3K10 (human) (Q02779 whole entry, looked up): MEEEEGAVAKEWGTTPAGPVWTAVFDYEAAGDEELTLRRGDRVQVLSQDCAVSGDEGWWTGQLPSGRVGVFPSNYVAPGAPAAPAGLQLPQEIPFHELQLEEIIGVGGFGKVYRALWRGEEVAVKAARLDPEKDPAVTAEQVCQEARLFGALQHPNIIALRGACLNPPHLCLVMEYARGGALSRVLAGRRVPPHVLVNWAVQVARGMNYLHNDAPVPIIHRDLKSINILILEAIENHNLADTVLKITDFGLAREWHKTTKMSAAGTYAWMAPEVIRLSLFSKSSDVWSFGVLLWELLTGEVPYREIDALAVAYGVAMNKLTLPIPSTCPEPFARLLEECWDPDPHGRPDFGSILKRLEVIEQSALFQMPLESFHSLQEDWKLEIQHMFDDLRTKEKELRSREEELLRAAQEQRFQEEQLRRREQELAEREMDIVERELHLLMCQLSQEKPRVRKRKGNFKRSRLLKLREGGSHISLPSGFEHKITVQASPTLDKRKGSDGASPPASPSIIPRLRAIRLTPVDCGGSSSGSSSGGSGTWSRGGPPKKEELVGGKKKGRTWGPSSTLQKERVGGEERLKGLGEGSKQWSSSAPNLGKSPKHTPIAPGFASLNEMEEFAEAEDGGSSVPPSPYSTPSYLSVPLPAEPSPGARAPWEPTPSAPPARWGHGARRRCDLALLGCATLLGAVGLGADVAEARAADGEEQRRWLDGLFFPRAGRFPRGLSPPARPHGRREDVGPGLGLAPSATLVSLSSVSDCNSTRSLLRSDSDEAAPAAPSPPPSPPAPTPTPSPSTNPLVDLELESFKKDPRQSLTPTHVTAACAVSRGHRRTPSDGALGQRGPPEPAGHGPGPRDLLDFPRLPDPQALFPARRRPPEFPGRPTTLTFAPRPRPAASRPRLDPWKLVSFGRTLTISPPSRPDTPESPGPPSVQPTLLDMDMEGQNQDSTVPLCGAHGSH

[25] = target: RPS6KA2 KD1 KD2 (human) (UniProt Q15349)
[26] = target: HIPK3 (human) (UniProt Q9H422)
[27] = target: PRKCI (human) (UniProt P41743)
[28] = target: STK33 (human) (UniProt Q9BYT3)
Sequence of STK33 (human) (Q9BYT3 whole entry, looked up): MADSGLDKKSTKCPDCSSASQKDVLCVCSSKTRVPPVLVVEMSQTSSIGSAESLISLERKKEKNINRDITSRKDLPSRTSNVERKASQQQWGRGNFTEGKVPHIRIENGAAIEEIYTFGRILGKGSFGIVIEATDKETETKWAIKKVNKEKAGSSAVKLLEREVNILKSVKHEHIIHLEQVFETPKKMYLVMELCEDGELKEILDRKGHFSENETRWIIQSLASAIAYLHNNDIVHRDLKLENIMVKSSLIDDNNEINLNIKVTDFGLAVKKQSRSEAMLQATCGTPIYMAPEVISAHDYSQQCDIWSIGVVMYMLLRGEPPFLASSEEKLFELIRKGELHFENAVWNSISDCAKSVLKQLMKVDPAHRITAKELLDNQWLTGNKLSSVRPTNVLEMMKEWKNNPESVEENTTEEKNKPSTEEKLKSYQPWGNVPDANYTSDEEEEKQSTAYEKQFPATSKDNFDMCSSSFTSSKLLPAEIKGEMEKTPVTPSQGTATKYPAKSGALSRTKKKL

[29] = target: EPHB1 (human) (UniProt P54762)
[30] = target: MAP3K8 (human) (UniProt P41279)
[31] = target: PRKD2 (human) (UniProt Q9BZL6)
Sequence of PRKD2 (human) (Q9BZL6 whole entry, looked up): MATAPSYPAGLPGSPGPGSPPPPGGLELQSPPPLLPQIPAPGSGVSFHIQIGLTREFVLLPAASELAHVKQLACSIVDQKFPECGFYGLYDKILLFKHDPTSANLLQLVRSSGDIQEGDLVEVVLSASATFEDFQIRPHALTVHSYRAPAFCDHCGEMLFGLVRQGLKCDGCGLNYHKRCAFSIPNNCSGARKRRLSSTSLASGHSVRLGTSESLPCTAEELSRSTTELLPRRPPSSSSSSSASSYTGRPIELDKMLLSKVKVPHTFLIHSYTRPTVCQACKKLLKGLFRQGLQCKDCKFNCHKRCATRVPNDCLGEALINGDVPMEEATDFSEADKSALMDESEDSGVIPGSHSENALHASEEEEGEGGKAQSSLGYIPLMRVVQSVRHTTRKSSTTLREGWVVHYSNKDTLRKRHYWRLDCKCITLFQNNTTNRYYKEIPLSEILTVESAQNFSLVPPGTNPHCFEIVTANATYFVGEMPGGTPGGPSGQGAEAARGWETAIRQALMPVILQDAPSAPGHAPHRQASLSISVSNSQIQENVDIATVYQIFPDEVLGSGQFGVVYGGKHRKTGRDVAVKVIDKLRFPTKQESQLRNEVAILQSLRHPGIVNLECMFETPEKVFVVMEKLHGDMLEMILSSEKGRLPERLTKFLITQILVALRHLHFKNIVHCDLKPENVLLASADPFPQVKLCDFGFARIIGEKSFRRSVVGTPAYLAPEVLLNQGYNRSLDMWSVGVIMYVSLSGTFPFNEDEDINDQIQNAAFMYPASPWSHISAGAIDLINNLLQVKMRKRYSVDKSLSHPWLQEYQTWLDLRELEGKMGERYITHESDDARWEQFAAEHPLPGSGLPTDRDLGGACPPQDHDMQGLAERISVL

[32] = target: MARK3 (human) (UniProt P27448)
[33] = target: CDK4 CCND1 (human) (UniProt P24385+P11802)
[34] = target: CLK1 (human) (UniProt P49759)
[35] = target: EPHA7 (human) (UniProt Q15375)
[36] = target: LRRK2 (human) (UniProt Q5S007)
[37] = target: TGFBR2 (human) (UniProt P37173)
[38] = target: DYRK3 (human) (UniProt O43781)
[39] = target: STK39 (human) (UniProt Q9UEW8)
[40] = target: AURKA (human) (UniProt O14965)
[41] = target: IRAK4 (human) (UniProt Q9NWZ3)
Sequence of IRAK4 (human) (Q9NWZ3 whole entry, looked up): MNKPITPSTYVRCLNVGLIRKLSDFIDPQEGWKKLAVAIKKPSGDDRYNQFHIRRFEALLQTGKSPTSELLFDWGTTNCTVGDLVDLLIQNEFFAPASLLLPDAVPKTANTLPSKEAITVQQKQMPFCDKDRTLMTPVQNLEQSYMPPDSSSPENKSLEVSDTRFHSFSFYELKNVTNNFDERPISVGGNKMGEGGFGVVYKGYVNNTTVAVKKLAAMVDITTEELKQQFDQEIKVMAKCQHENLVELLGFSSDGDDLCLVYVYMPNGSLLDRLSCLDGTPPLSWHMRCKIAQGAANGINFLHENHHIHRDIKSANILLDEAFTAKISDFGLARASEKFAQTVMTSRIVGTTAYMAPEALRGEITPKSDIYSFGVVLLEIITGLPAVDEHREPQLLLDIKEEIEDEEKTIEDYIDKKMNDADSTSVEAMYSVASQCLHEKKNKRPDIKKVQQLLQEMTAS

Sequence of MAP3K2 (human) (Q9Y2U5 whole entry, looked up): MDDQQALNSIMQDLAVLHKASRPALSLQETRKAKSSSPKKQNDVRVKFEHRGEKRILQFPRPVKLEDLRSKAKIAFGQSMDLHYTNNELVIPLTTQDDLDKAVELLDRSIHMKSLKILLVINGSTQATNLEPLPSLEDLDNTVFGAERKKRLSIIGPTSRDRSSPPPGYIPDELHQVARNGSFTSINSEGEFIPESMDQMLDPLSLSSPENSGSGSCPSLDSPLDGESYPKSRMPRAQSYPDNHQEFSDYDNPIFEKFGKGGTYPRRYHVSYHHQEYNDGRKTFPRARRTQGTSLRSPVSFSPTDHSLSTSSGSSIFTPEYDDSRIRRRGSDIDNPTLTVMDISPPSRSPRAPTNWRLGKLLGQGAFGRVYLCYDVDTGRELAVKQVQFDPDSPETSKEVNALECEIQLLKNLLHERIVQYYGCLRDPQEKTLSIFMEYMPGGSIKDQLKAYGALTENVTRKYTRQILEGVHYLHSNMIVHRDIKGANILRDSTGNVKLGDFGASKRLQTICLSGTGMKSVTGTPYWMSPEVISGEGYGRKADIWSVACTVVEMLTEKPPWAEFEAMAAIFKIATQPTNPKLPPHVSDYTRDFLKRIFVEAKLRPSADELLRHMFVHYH
Sequence of SRC (human) (P12931 whole entry, looked up): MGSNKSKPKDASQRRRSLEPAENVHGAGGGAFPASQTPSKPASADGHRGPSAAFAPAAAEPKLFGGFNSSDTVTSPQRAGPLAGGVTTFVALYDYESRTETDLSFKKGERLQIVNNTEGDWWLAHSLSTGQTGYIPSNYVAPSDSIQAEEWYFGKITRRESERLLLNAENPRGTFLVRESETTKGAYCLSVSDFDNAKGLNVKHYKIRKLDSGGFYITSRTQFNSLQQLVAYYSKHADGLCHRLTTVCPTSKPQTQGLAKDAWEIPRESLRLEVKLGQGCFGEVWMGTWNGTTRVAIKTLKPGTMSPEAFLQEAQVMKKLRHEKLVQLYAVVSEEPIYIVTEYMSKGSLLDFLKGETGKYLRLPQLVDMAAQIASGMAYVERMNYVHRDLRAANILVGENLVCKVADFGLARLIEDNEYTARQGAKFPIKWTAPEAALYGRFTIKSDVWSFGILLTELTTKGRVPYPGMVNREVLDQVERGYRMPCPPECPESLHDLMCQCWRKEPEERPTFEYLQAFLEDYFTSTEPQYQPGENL

For `O=C1Nc2ccccc2/C1=C\c1c(Cl)[nH]c2ccccc12`, the residual activity [1] was 102%, the residual activity [2] was 94% and the residual activity [3] was 88.5%. It also gave a residual activity [4] of 78.5%, a residual activity [5] of 93.9% and a residual activity [6] of 98.7%. The residual activity [7] was 102%, the residual activity [8] was 91.2% and the residual activity [9] was 94.6%. The residual activity [10] was 102%, the residual activity [11] was 105% and the residual activity [12] was 102%. It also gave a residual activity [13] of 99.3%, a residual activity [14] of 86% and a residual activity [15] of 99.2%. The residual activity [16] was 84.8%, the residual activity [17] was 110% and the residual activity [18] was 124%. For the same compound, the residual activity [19] was 95.1%, the residual activity [20] was 106% and the residual activity [21] was 99.3%. The residual activity [22] was 95.4%, the residual activity [23] was 92.6% and the residual activity [24] was 94.7%. For the same compound, the residual activity [25] was 81.1%, the residual activity [26] was 100% and the residual activity [27] was 99.2%. The residual activity [28] was 105%, the residual activity [29] was 90.8% and the residual activity [30] was 94.3%. The residual activity [31] was 90.2%, the residual activity [32] was 104% and the residual activity [33] was 98.4%. The residual activity [34] was 103%, the residual activity [35] was 95.3% and the residual activity [36] was 102%. It also gave a residual activity [37] of 95.6%, a residual activity [38] of 101% and a residual activity [39] of 104%. The residual activity [40] was 108% and the residual activity [41] was 102%.
With `CCCNC(=O)Nc1ccc(Oc2ncnc3cc(OC)c(OC)cc23)cc1Cl` the residual activity [1] was 99.7%, the residual activity [2] was 89.5% and the residual activity [3] was 102%. The residual activity [4] was 98.6%, the residual activity [5] was 82.1% and the residual activity [6] was 99.9%. The residual activity [7] was 95.5%, the residual activity [8] was 102% and the residual activity [9] was 99.1%. For the same compound, the residual activity [10] was 98.8%, the residual activity [11] was 99.6% and the residual activity [12] was 66.2%. For the same compound, the residual activity [13] was 97.1%, the residual activity [14] was 95.7% and the residual activity [15] was 103%. The residual activity [16] was 99.2%, the residual activity [17] was 95.2% and the residual activity [18] was 119%. It also gave a residual activity [19] of 98.5%, a residual activity [20] of 96.7% and a residual activity [21] of 98.8%. For the same compound, the residual activity [22] was 101%, the residual activity [23] was 109% and the residual activity [24] was 103%. For the same compound, the residual activity [25] was 95.7%, the residual activity [26] was 96.2% and the residual activity [27] was 93%. For the same compound, the residual activity [28] was 88.1%, the residual activity [29] was 95.5% and the residual activity [30] was 104%. For the same compound, the residual activity [31] was 94.3%, the residual activity [32] was 95.3% and the residual activity [33] was 102%. The residual activity [34] was 96.2%, the residual activity [35] was 86.3% and the residual activity [36] was 94.1%. For the same compound, the residual activity [37] was 109%, the residual activity [38] was 99.7% and the residual activity [39] was 88%. The residual activity [40] was 89.2% and the residual activity [41] was 92%.
`Nc1nc(Nc2ccc(S(N)(=O)=O)cc2)nn1C(=O)c1c(F)cccc1F` showed a residual activity [1] of 98.8%, a residual activity [2] of 11.3% and a residual activity [3] of 97.6%. It also gave a residual activity [4] of 76.3%, a residual activity [5] of 50.6% and a residual activity [6] of 85.6%. For the same compound, the residual activity [7] was 114%, the residual activity [8] was 24.7% and the residual activity [9] was 89.7%. It also gave a residual activity [10] of 65.8%, a residual activity [11] of 118% and a residual activity [12] of 92.1%. The residual activity [14] was 2.54%, the residual activity [15] was 77.4% and the residual activity [16] was 93.9%. It also gave a residual activity [17] of 0.878%, a residual activity [18] of 122% and a residual activity [19] of 107%. For the same compound, the residual activity [20] was 90.4%, the residual activity [21] was 9.59% and the residual activity [22] was 97.5%. The residual activity [23] was 106%, the residual activity [24] was 77.8% and the residual activity [25] was 42.2%. It also gave a residual activity [26] of 91.2%, a residual activity [27] of 87.6% and a residual activity [28] of 74.4%. For the same compound, the residual activity [29] was 84.1%, the residual activity [30] was 94.4% and the residual activity [31] was 86%. For the same compound, the residual activity [32] was 67.6%, the residual activity [33] was 20% and the residual activity [34] was 85.1%. It also gave a residual activity [35] of 68.7%, a residual activity [36] of 48.3% and a residual activity [37] of 98.5%. It also gave a residual activity [38] of 101%, a residual activity [39] of 89.5% and a residual activity [41] of 151%.
For `O=C1Cc2c([nH]c3ccc([N+](=O)[O-])cc23)-c2ccccc2N1`, the residual activity [1] was 87.4%, the residual activity [2] was 78% and the residual activity [3] was 92%. For the same compound, the residual activity [4] was 39.7%, the residual activity [5] was 42.3% and the residual activity [6] was 92.5%. It also gave a residual activity [7] of 102%, a residual activity [8] of 38% and a residual activity [9] of 88.2%. For the same compound, the residual activity [10] was 106%, the residual activity [11] was 109% and the residual activity [12] was 85.1%. For the same compound, the residual activity [13] was 100%, the residual activity [14] was 10.5% and the residual activity [15] was 67.5%. It also gave a residual activity [16] of 92.6%, a residual activity [17] of 56.5% and a residual activity [18] of 137%. The residual activity [19] was 97.8%, the residual activity [20] was 94.8% and the residual activity [21] was 0.971%. The residual activity [22] was 98%, the residual activity [23] was 132% and the residual activity [24] was 48.6%. For the same compound, the residual activity [25] was 62%, the residual activity [26] was 96.6% and the residual activity [27] was 83.3%. It also gave a residual activity [28] of 79.9%, a residual activity [29] of 112% and a residual activity [30] of 99%. The residual activity [31] was 101%, the residual activity [32] was 67.7% and the residual activity [34] was 111%. For the same compound, the residual activity [35] was 95%, the residual activity [36] was 96.5% and the residual activity [37] was 19.4%. It also gave a residual activity [38] of 99.3%, a residual activity [39] of 77.5% and a residual activity [40] of 96%. For the same compound, the residual activity [41] was 167%.
`Nc1nc(Nc2ccc(S(N)(=O)=O)cc2)nn1C(=S)Nc1c(F)cccc1F` showed a residual activity [1] of 78.2%, a residual activity [2] of -0.498% and a residual activity [3] of 90.7%. For the same compound, the residual activity [4] was 41.6%, the residual activity [5] was 10.5% and the residual activity [6] was 96.6%. For the same compound, the residual activity [7] was 98.4%, the residual activity [8] was 2.42% and the residual activity [9] was 9.7%. It also gave a residual activity [10] of 4.64%, a residual activity [11] of 92.2% and a residual activity [12] of 105%. The residual activity [13] was 16.7%, the residual activity [14] was 0.156% and the residual activity [15] was 12.5%. For the same compound, the residual activity [16] was 94.6%, the residual activity [17] was 5.11% and the residual activity [18] was 106%. The residual activity [19] was 85.9%, the residual activity [21] was 6.3% and the residual activity [22] was 92.1%. For the same compound, the residual activity [23] was 29.1%, the residual activity [24] was 3% and the residual activity [25] was 2.08%. The residual activity [26] was 78.2%, the residual activity [27] was 78.9% and the residual activity [28] was 35.1%. The residual activity [29] was 19.4%, the residual activity [30] was 127% and the residual activity [31] was 9.05%. It also gave a residual activity [32] of 0.29%, a residual activity [33] of 87.7% and a residual activity [34] of 2.26%. The residual activity [35] was 14.2%, the residual activity [36] was 1.33% and the residual activity [37] was 89.3%. It also gave a residual activity [38] of 98.5%, a residual activity [39] of 76.5% and a residual activity [40] of 1.44%. It also gave a residual activity [41] of 19.6%.
